Results on two compounds are retold here after US9339491B2, “Use of a pyrazole derivative in the treatment of acute exacerbations of chronic obstructive pulmonary disease” (Mereo BioPharma 1 Limited, priority 2012, dated 2016).

The test system of series [1] is patients who have an acute COPD exacerbation. As to the kind of experiment: Clinical study in acute COPD exacerbation: dyspnea by Borg CR 10 scores. It is filed as in vivo, human. Details: AUC[days 2-14] in Borg CR 10 scores, Difference LS mean, Compound A - prednisone / AUC[days 2-14] in Borg CR 10 scores (adjusted for Day 1), LS mean / AUC[days 2-14] in Borg CR 10 scores, Difference LS mean, treatment - placebo: unit not given beside the values. As to conditions: for AUC[days 2-14] in Borg CR 10 scores (adjusted for Day 1), LS mean: per treatment arm; for AUC[days 2-14] in Borg CR 10 scores, Difference LS mean, treatment - placebo: versus placebo. The protocol: “BORG Score” as used herein refers to a measurement of dyspnea in accordance with the Borg scale. On that scale 0 represents no breathlessness at all and 10 represents maximum breathlessness.
(§1) An exploratory, randomized, double-blind, placebo controlled, multi-center study to assess the efficacy, safety and tolerability of a single 75 mg dose of 3-[5-amino-4-(3-cyano-benzoyl)-pyrazol-1-yl]-N-cyclopropyl-4-methylbenzamide administered orally to patients who have an acute COPD exacerbation
(§2) The efficacy, safety and tolerability of a single 75 mg dose of 3-[5-amino-4-(3-cyano-benzoyl)-pyrazol-1-yl]-N-cyclopropyl-4-methylbenzamide (Compound A) administered orally to patients who have an acute COPD exacerbation was conducted.
(§3) 90 patients were randomized 1:1:1 to three treatment arms.
(§4) =single 75 mg dose of Compound A on day 1+prednisone placebo×10 days
(§5) =single dose of Compound A placebo on day 1+prednisone placebo×10 days
(§6) =single dose of Compound A placebo on day 1+40 mg oral prednisone […]×10 days
(§7) =doxycycline 100 mg dose×10 days or a non-macrolide antibiotic concurrent with local prescribing antibiotic guidelines.
(§8) Key efficacy endpoints: • FEV1 improvement from baseline at Day 5 • BORG Scores • EXACT PRO: • Recovery defined as reduction in EXACT score ≧9 points benchmarked against the maximum observed score (MOV: highest EXACT score using a 3-day rolling average) over the 14 day period following onset. • Time to recovery • Severity • Maximum severity—highest exact score over 30 days • Total severity—area under the curve from onset (i.e. Day 1) to recovery/Day 30 whichever comes first based on total exact score. • Duration of exacerbation (days from onset to recovery/Day 30) • Frequency of patients who recovered at Day 30 • Treatment failure: • Patients who were treated with oral corticosteroids, admitted to hospital to COPD related symptoms, changed in antibiotic therapy relating to COPD, or in the attending physicians opinion needed treatment for a further exacerbation.
LS is an abbreviation for least squares.

For series [2] the test system is unchanged. As to the kind of experiment: Clinical study in acute COPD exacerbation: patient disposition / discontinuation. The settings on record: for Reason for discontinuation: Death: 2nd interim, 30 days of follow-up, Compound A N = 31, Prednisone N = 30; for Reason for discontinuation: Adverse Events: human, in vivo. The class given is in vivo. The protocol: as §1, §2, §3, §4, §5, §6, §7
(§9) Present data (at 2nd interim) includes total of 91 randomized patients with 30 days of follow-up.

Series [3] has the same test system. As to the kind of experiment: Clinical study in acute COPD exacerbation: safety and tolerability (adverse events). It is filed as in vivo, human. As for the experimental part:
as §1, §2
Secondary objectives: Safety and tolerability, patient reported outcomes, and time to next exacerbation.
as §3, §4, §5, §6, §7
Initial hospitalization for COPD exacerbation at baseline was not recorded as a serious adverse event (SAE). Only subsequent admissions were recorded. […] No rash was noted. No unusual events or imbalances between treatment arms were noted.

For series [4] the test system is unchanged. As to the kind of experiment: Clinical study in acute COPD exacerbation: efficacy measured by FEV1. As to conditions: for FEV1 change from baseline, Difference, Compound A v prednisone: single 75 mg oral Compound A v 40 mg oral prednisone x 10 days; for FEV1 change from baseline, Difference, Compound A v placebo: single 75 mg oral dose of Compound A, ANCOVA repeated measurements. It is filed as in vivo, human. As for the experimental part:
“Forced Expiratory Volume in One Second” or “FEV1” as used herein is the volume of air that can forcibly be blown out in one second, after full inspiration, which is measured by a spirometer. It is a measure of lung function or performance. Average values for FEV1 in healthy people depend mainly on sex and age. Values of between 80% and 120% of the average value are considered normal.
as §1, §2
Primary objective: Assess the efficacy of a single 75 mg dose of Compound A in COPD patients presenting with an exacerbation as measured by the improvement in FEV1 over the first 5 days of treatment relative to placebo.
as §3, §4, §5, §6, §7
Visits at Days 3, 5 and 14 and follow-up visits 30 and 90 days. End of study visit at 6 months.
as §9
Inclusion criteria for the study population were: • Males/females ≧40 to ≦80 years • GOLD stages 2 to 4 • Smoking history at least 10 pack years • Investigator defined COPD exacerbation
Exclusion criteria for the study population were: • Arterial blood pH <7.26 at randomization • History or presence of clinically uncontrolled left heart failure • Clinical or radiological evidence of pneumonia • Long term Oxygen >15 hours a day • History of clinically significant ECG abnormalities • History or presence of impaired renal function • Use of macrolide antibiotics within 48 hours of randomization
as §8
FEV1 change from baseline analysed with ANCOVA ([…]) model for repeated measurements. Estimated between patient standard deviation—200 ml.

The test system is the same in series [5]. As to the kind of experiment: Clinical study in acute COPD exacerbation: treatment failure composite endpoint. As to conditions: retreatment with antibiotics, oral steroids, death, hospitalization or treatment indicating another exacerbation. The class given is in vivo, human. The protocol:
as §1, §2, §3, §4, §5, §6
=doxycycline 100 mg dose×10 days or a non-macrolide antibiotic concurrent with local prescribing antibiotic guidelines. […]

[6] abbreviates: Compound A N = 31, Prednisone N = 30.

For the compound `C[C@]12C=CC(=O)C=C1CC[C@@H]1[C@@H]2C(=O)C[C@@]2(C)[C@H]1CC[C@]2(O)C(=O)CO` [Prednisone, prednisone, reference compound], the “AUC[days 2-14] in Borg CR 10 scores (adjusted for Day 1), LS mean” value in series [1] (days 2-14) was found to be 3.61. The “AUC[days 2-14] in Borg CR 10 scores, Difference LS mean, treatment - placebo” value in series [1] (days 2-14, adjusted for Day 1) came to 0.13. In series [2], the “Reason for discontinuation: Death” value is reported as 2 (6.7) n (%) and the “Reason for discontinuation: Adverse Events” value is recorded as 0 (0.0) n (%). In series [3] (setting [6]), the “Number of subjects with AE: Abdominal pain upper” value was 1 (3.3) n (%), the “Number of subjects with AE: Any AE” value is 12 (40.0) n (%), the “Number of subjects with AE: COPD” value was 5 (16.7) n (%) and the “Number of subjects with AE: Diarrhoea” value is listed as 0 (0.0) n (%). Besides, in series [3] (setting [6]), the “Number of subjects with AE: Dizziness” value is 0 (0.0) n (%), the “Number of subjects with AE: Headache” value is given as 3 (10.0) n (%), the “Number of subjects with AE: Nasopharyngitis” value was 1 (3.3) n (%) and the “Number of subjects with AE: Nausea” value was 2 (6.7) n (%). For the same compound, in series [3] (setting [6]), the “Number of subjects with AE: Occult blood” value is reported as 1 (3.3) n (%) and the “Number of subjects with AE: Vertigo” value is listed as 1 (3.3) n (%).

As for `Cc1ccc(C(=O)NC2CC2)cc1-n1ncc(C(=O)c2cccc(C#N)c2)c1N` [Compound A, 3-[5-Amino-4-(3-cyanobenzoyl)-pyrazol-1-yl]-N-cyclopropyl-4-methylbenzamide], the “Breathlessness over 14 days compared with prednisone” value in series [1] (over 14 days) is “on average less breathless”. Moreover, the “AUC[days 2-14] in Borg CR 10 scores (adjusted for Day 1), LS mean” value in series [1] (days 2-14) stood at 3.25. Besides, in series [1] (days 2-14, adjusted for Day 1), the “AUC[days 2-14] in Borg CR 10 scores, Difference LS mean, treatment - placebo” value was −0.23. The “AUC[days 2-14] in Borg CR 10 scores, Difference LS mean, Compound A - prednisone” value in series [1] (versus prednisone, days 2-14, adjusted for Day 1) was −0.36. For the same compound, in series [4] (Day 3), the “Improvement in FEV1 versus placebo and prednisone” value is “greater improvement in FEV1”; the “FEV1 change from baseline, Difference, Compound A v prednisone” value stood at 102.28 mL; the “FEV1 change from baseline, Difference, Compound A v placebo” value turned out to be 119.59 mL. In addition, in series [4] (Day 5), the “FEV1 change from baseline, Difference, Compound A v prednisone” value was found to be 109.15 mL and the “FEV1 change from baseline, Difference, Compound A v placebo” value was 46.56 mL. For the same compound, in series [4] (day 3, single 75 mg oral dose), the “Patients who responded with >100 ml improvement (FEV1)” value is recorded as 60%. In addition, in series [2], the “Reason for discontinuation: Death” value is given as 0 (0.0) n (%). Besides, the “Reason for discontinuation: Adverse Events” value in series [2] (30 days) is 0 (0.0) n (%). For the same compound, in series [3] (human, in vivo), the “COPD adverse events” value is “No COPD adverse events were observed”, the “Number of subjects with AE: Abdominal pain upper” value is listed as 1 (3.2) n (%), the “Number of subjects with AE: Any AE” value was 8 (25.8) n (%) and the “Number of subjects with AE: COPD” value was 0 (0.0) n (%). Further, in series [3] (human, in vivo), the “Number of subjects with AE: Diarrhoea” value is reported as 1 (3.2) n (%), the “Number of subjects with AE: Dizziness” value is listed as 2 (6.5) n (%), the “Number of subjects with AE: Headache” value is given as 1 (3.2) n (%) and the “Number of subjects with AE: Nasopharyngitis” value is given as 1 (3.2) n (%). Also, in series [3] (human, in vivo), the “Number of subjects with AE: Nausea” value was 0 (0.0) n (%); the “Number of subjects with AE: Occult blood” value is on record as 1 (3.2) n (%); the “Number of subjects with AE: Vertigo” value is reported as 1 (3.2) n (%); the “Safety and tolerability” value is “safe and well tolerated”. Also, the “Treatment failures (composite endpoint)” value in series [5] is on record as 0 patients.
